Reference: patent US7317001B2, “Use of ramoplanin to treat diseases associated with the use of antibiotics” (priority 2002, dated 2008)

Assays:
C. difficile [1] = assay: Hamster model of clindamycin-induced C. difficile-associated colitis; assay type: in vivo, Syrian hamsters; details: oral 50 mg/kg/day for 5 days; for survival rate: from 24 hours after clindamycin 100 mg/kg s.c., monitored 20 days
Protocol: To evaluate the in vivo efficacy of ramoplanin in the treatment of C. difficile-associated colitis, ramoplanin was tested in a hamster model of clindamycin (CL)-induced colitis in comparison with both vancomycin and metronidazole. Animals were treated with a single subcutaneous (s.c.) injection of 100 mg/kg clindamycin, and after 24 hours received oral ramoplanin or vancomycin at 50 mg/kg/day for 5 days. Animals were observed daily for the presence or absence of diarrhea. Necropsies were performed on some animals that died during the experiment, and cecal contents were assayed for C. difficile toxin A. Hamsters were monitored for 20 days, and the cumulative mortality during this period was recorded (FIG. 1). […] C. difficile toxin A was always detected in these animals. […] All hamsters that died had gross pathologic evidence of enterocolitis and cecal contents were positive for Toxin A.

C. difficile strain 4013 [2] = assay: Hamster CDAD induced by oral C. difficile challenge plus clindamycin; assay type: in vivo, Syrian hamsters; details: for animals surviving the study: all doses
Protocol: In a second study, animals were challenged orally with a bacterial suspension of C. difficile and then administered a single s.c. injection of 100 mg/kg clindamycin. Oral treatment with ramoplanin or vancomycin at 25-50-100 mg/kg or metronidazole at 100-200-400 mg/kg started 24 hours after clindamycin administration and lasted for five days. Hamsters were weighed and observed every 24 hours for evidence of diarrhea or moribund conditions, and the cecal contents were analyzed for C. difficile toxin A (ELISA).

C. difficile strain 4013 [3] = assay: Hamster CDAD, different durations of treatment; assay type: in vivo, Syrian hamsters; details: ramoplanin 50 mg/kg oral daily for 3 days versus vancomycin 50 mg/kg for 5 days
Protocol: Hamsters were inoculated with C. difficile on day 0 and then administered 100 mg/kg clindamycin s.c. on day 1. Hamsters received daily oral doses of 50 mg/kg ramoplanin or vancomycin for 3 or 5 days starting on day 2.

C. difficile [4] = assay: Recovery of C. difficile spores or vegetative cells from clindamycin-treated animals; assay type: in vivo, hamster; details: after single dose of clindamycin and treatment
Protocol: In another study, animals were administered a single dose of clindamycin and then treated with either vancomycin or ramoplanin.

[5] = Single oral dose study in healthy male volunteers: absorption and fecal recovery; assay type: in vivo, human
Protocol: The absorption, tolerability, and recovery of ramoplanin following single dose oral administration were investigated in male volunteers. Ramoplanin was administered as an aqueous solution at a dose of 100, 200, 500, or 1000 mg to fasting subjects. Serum samples were obtained prior to drug administration of ramoplanin and 0.5, 1, 2, 3, 6, 9, 12, 24, 48, 72, and 96 hours after treatment. Urine samples were collected prior to administration of ramoplanin and over the periods 0-3,3-6, 6-12, 12-24, 24-48, 48-72, and 72-96 hours after dosing. Fecal samples were collected prior to dosing and over the periods 0-16 (Day 1), 16-40 (Day 2), 40-64 (Day 3), 64-88 (Day 4), and 88-96 (Day 5) hours after dosing. A microbiological assay employing Bacillis subtilis ATCC 6633 as the test organism was used to determine ramoplanin concentrations in serum, urine, and feces. The limits of quantitation for this assay were 0.02 μg/mL in serum, 0.012 μg/mL in urine, and 3 μg/g in feces. Tolerability was assessed on the basis of clinical signs and symptoms and the results of blood and urine laboratory tests.

[6] = Multiple oral dose study in healthy male volunteers: absorption and fecal concentrations; assay type: in vivo, human
Protocol: Healthy male volunteers were administered 200, 400, or 800 mg ramoplanin twice-a-day, for ten consecutive days. The predetermined dose was reconstituted in 5 mL water per vial, mixed with 50 mL of sweetened, aromatized solution, and immediately administered orally to the subjects.
No absorption from the human gastrointestinal tract was observed.

[7] = system: Gram-positive bacteria (staphylococci, streptococci, enterococci); assay: Multiple dose study, antibacterial activity on stool microflora: Gram-positive bacteria; assay type: in vivo, human
Protocol: (§1) The antibacterial activity of ramoplanin on the stool microflora was assessed in a subset of the subjects. Microbial concentrations (i.e., the number of organisms per gram of fecal matter) were determined at the following time points: Day −4 (pre-treatment), Days 4 and 10 (treatment), and Days 7 and 24 (follow-up). Tolerability and absorption were also investigated.

Clostridium spp. = assay: Multiple dose study, antibacterial activity on stool microflora: Clostridium spp.; assay type: in vivo, human
Protocol: as §1

[8] = system: Gram-negative bacteria (enteric bacteria and Bacteroides spp.) or yeast; assay: Multiple dose study, antibacterial activity on stool microflora: Gram-negative bacteria and yeast; assay type: in vivo, human
Protocol: as §1

[9] = In vitro interaction of ramoplanin with human intestinal contents
Text: The in vitro interaction of ramoplanin with human intestinal contents was studied. […] The binding and the subsequent release of ramoplanin from feces would likely result in long-lasting concentrations in the intestinal tract.

VRE = assay: Multiple dose study in asymptomatic carriers of intestinal VRE; assay type: in vivo, human; details: for patients remaining VRE free: Day 14 (seven days after cessation)
Protocol: Patients identified as asymptomatic carriers of VRE were administered placebo or one of two dosages (100 mg, 400 mg) of ramoplanin BID (twice daily) for seven days. Patients were assessed by rectal swab on Days 7, 14, and 21 to determine the presence or absence of VRE. On Days 45 and 90, stool samples were analyzed for long-term effects of ramoplanin on the recurrence of, or reinfection with, VRE. All VRE isolates were tested for susceptibility to ramoplanin.

In the case of ramoplanin, the “prolonging survival and protecting animals from death” value (C. difficile [1]) is reported as “highly effective”, the survival rate (C. difficile [1]) is reported as 80% and the “survival at the end of observation period” value (C. difficile strain 4013 [2]; 100 mg/kg oral for five days) is reported as 20%. The “time of death compared to vancomycin-treated animals” value (C. difficile strain 4013 [2]; oral for five days) was “delayed compared to that of vancomycin-treated animals”, the “efficacy by duration of treatment” value (C. difficile strain 4013 [3]) was “more effective than vancomycin administration for 5 days” and the “recovery of C. difficile spores or vegetative cells” value (C. difficile [4]) was “No C. difficile spores or vegetative cells were recovered”. For the same compound, the “mean cumulative recovery in feces, of the administered dose” value (“mean cumulative recovery in feces” for short) ([5]; 100 mg single oral dose) was 67.7%, the “mean maximum concentration in feces” value ([5]; 100 mg single oral dose) was 214 µg/g and the “range of cumulative recovery in feces” value ([5]; 100 mg single oral dose) was 55.7-84%. For the same compound, the “range of maximum concentrations in feces” value ([5]; 100 mg single oral dose) was 148 to 278 µg/g, the “mean cumulative recovery in feces” value ([5]; 200 mg single oral dose) was 48.5% and the “mean maximum concentration in feces” value ([5]; 200 mg single oral dose) was 287 µg/g. The “range of cumulative recovery in feces” value ([5]; 200 mg single oral dose) was 39.3-56.5%, the “range of maximum concentrations in feces” value ([5]; 200 mg single oral dose) was 164 to 454 µg/g and the “mean cumulative recovery in feces” value ([5]; 500 mg single oral dose) was 52.8%. For the same compound, the “mean maximum concentration in feces” value ([5]; 500 mg single oral dose) was 1655 µg/g, the “range of cumulative recovery in feces” value ([5]; 500 mg single oral dose) was 41.3-79.6% and the “range of maximum concentrations in feces” value ([5]; 500 mg single oral dose) was 737 to 3316 µg/g. For the same compound, the “mean cumulative recovery in feces” value ([5]; 1000 mg single oral dose) was 46.4%, the “mean maximum concentration in feces” value ([5]; 1000 mg single oral dose) was 1835 µg/g and the “range of cumulative recovery in feces” value ([5]; 1000 mg single oral dose) was 39.9-58.4%. The “range of maximum concentrations in feces” value ([5]; 1000 mg single oral dose) was 1336 to 3154 µg/g, the “subjects with ramoplanin still detectable in feces” value ([5]; fourth day of study, single oral dose) was 17 of 24 and the “time of maximum concentration and maximum percentage recovery in feces” value ([5]; single oral dose, not dose dependent) was “Day 2”. The “detection in serum/plasma or urine” value ([5]; single oral doses up to 1000 mg and multiple oral doses 200, 400 or 800 mg BID for 10 days, bioassay and HPLC) was “not detected”, the “absorption from the human gastrointestinal tract” value ([6]; 200, 400 or 800 mg twice-a-day for ten days) was “No absorption” and the urine levels ([6]; Day 1 and 5 and pooled urine up to 72-96 after the last dose) was “No levels were found in urine”. The average fecal concentration ([6]; Day 3, 200 mg twice-a-day) was 827 µg/g, the average fecal concentration ([6]; Day 3, 400 mg twice-a-day) was 1742 µg/g and the average fecal concentration ([6]; Day 3, 800 mg twice-a-day) was 1901 µg/g. The average fecal concentration ([6]; Day 10, 200 mg twice-a-day) was 949 µg/g, the average fecal concentration ([6]; Day 10, 400 mg twice-a-day) was 1417 µg/g and the average fecal concentration ([6]; Day 10, 800 mg twice-a-day) was 2647 µg/g. For the same compound, the serum levels ([6]; Days 1, 5 and 10, hour 0.5, 1, 2, 3, 6, 9 and 12 after the morning dose) was “no serum levels of ramoplanin were detected”, the fecal concentrations post-treatment ([6]; after ten days of twice-a-day dosing) was “remained detectable in some subjects four days post-treatment” and the “cumulative recovery in feces, of the administered dose” value ([6]; up to Day 4 post-treatment) was 25%. For the same compound, the “Gram-positive colony counts in feces” value ([7]; all doses (200, 400 or 800 mg BID), during the 10-day regimen) was “undetectable levels”, the “concentrations of staphylococci, streptococci and enterococci in stool” value ([7]; by Day 10, all subjects) was “below the level of detection” and the “effect on Gram-positive bacteria of the stool” value ([7]; first measurement on Day 4) was “marked effect”. The “clostridial load in the two subjects carrying ramoplanin- and vancomycin-resistant Clostridium spp. (C. rectum and C. bejerinckii)” value (Clostridium spp.; multiple dose, ten days) was “no variation in the clostridial load”, the “subjects with Clostridium spp. concentration reduced below detectable levels” value (Clostridium spp.; multiple dose, ten days) was 10 of 12 and the “ramoplanin- or vancomycin-resistant C. difficile strains in stool” value (Clostridium spp.; pre- or post-treatment) was “No ramoplanin- or vancomycin-resistant strain of C. difficile was detected”. For the same compound, the “activity against Gram-negative flora in feces” value ([8]; 200, 400 or 800 mg BID for 10 days) was “not effective”, the “effect on Gram-negative bacteria (enteric bacteria and Bacteroides spp.) or yeast of the stool” value ([8]; multiple dose, ten days) was “no effect” and the “binding to solid components of feces” value [9] was “bind reversibly to solid components of feces”. The “microbiological activity in feces” value [9] was “microbiologically active in feces”, the “suppression of intestinal VRE (primary efficacy variable)” value (VRE; 100 mg or 400 mg BID for seven days) was “effectively suppressed intestinal VRE” and the “patients with no detectable VRE” value (VRE; Day 7, 100 mg BID for seven days, 17 of 21 patients) was 81.0%. For the same compound, the “patients with no detectable VRE” value (VRE; Day 7, 400 mg BID for seven days, 18 of 20 patients) was 90.0%, the “patients remaining VRE free” value (VRE; 100 mg BID, 6 of 21 patients) was 28.6% and the “patients remaining VRE free” value (VRE; 400 mg BID, 7 of 17 patients) was 41.2%. For the same compound, the “number of VRE-free patients” value (VRE; Day 21) was “comparable among all treatment groups”.

With `CN[C@H](CC(C)C)C(=O)N[C@H]1C(=O)N[C@@H](CC(N)=O)C(=O)N[C@H]2C(=O)N[C@H]3C(=O)N[C@H](C(=O)N[C@H](C(=O)O)c4cc(O)cc(O)c4-c4cc3ccc4O)[C@H](O)c3ccc(c(Cl)c3)Oc3cc2cc(c3O[C@@H]2O[C@H](CO)[C@@H](O)[C@H](O)[C@H]2O[C@H]2C[C@](C)(N)[C@H](O)[C@H](C)O2)Oc2ccc(cc2Cl)[C@H]1O` [vancomycin, reference compound] the “prolonging survival and protecting animals from death” value (C. difficile [1]) was “highly effective”, the survival rate (C. difficile [1]) was 20% and the “animals surviving the study” value (C. difficile strain 4013 [2]; oral for five days) was “No animals treated with vancomycin or metronidazole survived the study”. The “recovery of C. difficile spores or vegetative cells” value (C. difficile [4]) was “C. difficile spores were recovered from some of the animals”.

For `Cc1ncc([N+](=O)[O-])n1CCO` [metronidazole], the “animals surviving the study” value (C. difficile strain 4013 [2]; oral for five days) was “No animals treated with vancomycin or metronidazole survived the study” and the prolonged survival (C. difficile strain 4013 [2]; oral for five days, ramoplanin or vancomycin 25-50-100 mg/kg, metronidazole 100-200-400 mg/kg) was 9 days.
